Where two headings read alike, the source gives them in different places.

The record followed here is patent publication US10596184B2, “Aza-heteroaryl compounds as PI3K-gamma inhibitors” (Incyte Corporation, priority 2015, dated 2020).

For the test, the system named is Phosphorylated Ribosomal Protein S6 (RPS6) in THP-1 cells. Briefly: THP-1 RPS6 ELISA Assay. Format: cell-based, Human. Conditions: 2 hours with compound, then 10 nM MCP-1 for 15 minutes, read-out: THP p-RPS6 ELISA IC50. How it is done:
To measure the Phosphorylated Ribosomal Protein S6 (RPS6) in cell lysates, THP-1 cells (Human Acute Monocytic Leukemia) are purchased from ATCC (Manassas, Va.) and maintained in RPMI with 10% FBS (Gibco/Life Technologies, Carlsbad, Calif.). For the assay, THP-1 cells are serum starved overnight in RPMI, then plated in RPMI (2×10^5 cells/well in 90 μL) into 96-well flat-bottom tissue culture treated plates (Corning, Corning, N.Y.), in the presence or absence of a concentration range of test compounds. Covered plates are incubated for 2 hours at 37° C., 5% CO2 then treated with or without 10 nM MCP-1 (MYBioSource, San Diego, Calif.) for 15 minutes at 37° C., 5% CO2. Plates are centrifuged at 1600 RPM and supernatants are removed. Cells are lysed in Lysis Buffer (Cell Signaling, Danvers, Mass.) with Protease Inhibitor (Calbiochem/EMD, Germany), PMSF (Sigma, St Louis Mo.), HALTS (Thermo Fisher, Rockford, Ill.) for 30 min on wet ice. Cell lysates are frozen at −80° C. before testing. The lysates are tested in the Human/Mouse/Rat Phospho-RPS6 ELISA (R&D Systems, Inc. Minn, Minn.). The plate is measured using a microplate reader (SpectraMax M5—Molecular Devices, LLC Sunnyvale, Calif.) set to 450 nm with a wavelength correction of 540. […]
A general note: An ELISA detects its analyte on a solid surface through an enzyme-linked reagent.

As usually defined, the IC50 is the concentration that inhibits the measured activity by half. For the compound `CN1CCN(S(=O)(=O)Nc2cncc(-c3ccc4nc(-c5nc6ccccc6[nH]5)oc4c3)c2)CC1` [Example 31, N-(5-(2-(1H-Benzofdlimidazol-2-yl)benzo[d]oxazol-6-yl)pyridin-3-yl)-4-methylpiperazine-1-sulfonamide], the 50% inhibitory concentration (IC50) is less than 1000 nM. For `CCS(=O)(=O)Nc1cncc(-c2ccc3nc(-c4nc(C)c(C)[nH]4)oc3c2)c1` [Example 63, N-(5-(2-(4,5-Dimethyl-1H-imidazol-2-yl)benzo[d]oxazol-6-yl)pyridin-3-yl)ethanesulfonamide bis(trifluoroacetate)], the IC50 (Homo sapiens) was less than 5000 nM.
